Results from patent US20230085307A1, “PYRIDAZINONE COMPOUND AND HERBICIDE” (NISSAN CHEMICAL CORPORATION, priority 2019, published 2023).

How the values were obtained:
late watergrass = assay: Test Example 2: herbicidal activity, application during weed generation under submerged conditions (Table 17, symbol A); assay type: in vivo, late watergrass (Echinochloa oryzicola); settings: AAH 320 g/ha; application during weed generation, submerged conditions
How it was run: (§1)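 Alluvial soil in Wagner pots was flooded to 4 cm depth and sown with the three weeds together; pots were kept in a greenhouse at 25° C. to 30° C. At the one to two leaf stage, an emulsion formulation diluted in water to a set rate went onto the water surface; scored three weeks later.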

Japanese bulrush = assay: Test Example 2: herbicidal activity, application during weed generation under submerged conditions (Table 17, symbol B); assay type: in vivo, Japanese bulrush (Schoenoplectus juncoides); settings: AAH 320 g/ha; application during weed generation, submerged conditions
How it was run: as §1

oval-leafed pondweed = assay: Test Example 2: herbicidal activity, application during weed generation under submerged conditions (Table 17, symbol C); assay type: in vivo, oval-leafed pondweed (Monochoria vaginalis); settings: AAH 320 g/ha; application during weed generation, submerged conditions
How it was run: as §1

barnyard grass [1] = assay: Test Example 3: herbicidal effect by foliage application, Wagner pot (Table 18, symbol H); assay type: in vivo, barnyard grass (Echinochloa crus-galli)
How it was run: (§2)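 Plants were sown in alluvial soil held under 0.1–0.5 cm standing water and grown 14 days in a greenhouse at 25–30 °C. An emulsifiable formulation, water-diluted to the set dose, was then sprayed onto the foliage, and effects were scored three weeks later using previously defined criteria.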

Chinese sprangletop = assay: Test Example 3: herbicidal effect by foliage application, Wagner pot (Table 18, symbol D); assay type: in vivo, chinese sprangletop (Leptochloa chinensis)
How it was run: as §2

rice flat sedge = assay: Test Example 3: herbicidal effect by foliage application, Wagner pot (Table 18, symbol E); assay type: in vivo, rice flat sedge (Cyperus iria)
How it was run: as §2

southern crabgrass [2] = assay: Test Example 4: herbicidal effect by soil treatment (Table 19, symbol F); assay type: in vivo, southern crabgrass (Digitaria ciliaris)
How it was run: (§3)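 Seeds were sown in sterilized diluvial soil and covered with about 1.5 cm of soil. An emulsion formulation diluted with water to a predetermined herbicide amount was sprayed evenly onto the soil surface. Plants grew in a greenhouse at 25° C. to 30° C., and the effect was scored three weeks after application using criteria from an earlier test.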

green foxtail [3] = assay: Test Example 4: herbicidal effect by soil treatment (Table 19, symbol G); assay type: in vivo, green foxtail (Setaria viridis)
How it was run: as §3

barnyard grass [4] = assay: Test Example 4: herbicidal effect by soil treatment (Table 19, symbol H); assay type: in vivo, barnyard grass (Echinochloa crus-galli)
How it was run: as §3

wild oat [5] = assay: Test Example 4: herbicidal effect by soil treatment (Table 19, symbol I); assay type: in vivo, wild oat (Avena fatua)
How it was run: as §3

blackgrass [6] = assay: Test Example 4: herbicidal effect by soil treatment (Table 19, symbol J); assay type: in vivo, blackgrass (Alopecurus myosuroides)
How it was run: as §3

Italian ryegrass [7] = assay: Test Example 4: herbicidal effect by soil treatment (Table 19, symbol K); assay type: in vivo, Italian ryegrass (Lolium multiflorum)
How it was run: as §3

windgrass [8] = assay: Test Example 4: herbicidal effect by soil treatment (Table 19, symbol L); assay type: in vivo, windgrass (Apera spica-venti)
How it was run: as §3

velvetleaf [9] = assay: Test Example 4: herbicidal effect by soil treatment (Table 19, symbol M); assay type: in vivo, velvetleaf (Abutilon theophrasti)
How it was run: as §3

redroot pigweed [10] = assay: Test Example 4: herbicidal effect by soil treatment (Table 19, symbol N); assay type: in vivo, redroot pigweed (Amaranthus retroflexus)
How it was run: as §3

lambsquarters [11] = assay: Test Example 4: herbicidal effect by soil treatment (Table 19, symbol O); assay type: in vivo, lambsquarters (Chenopodium album)
How it was run: as §3

chickweed [12] = assay: Test Example 4: herbicidal effect by soil treatment (Table 19, symbol P); assay type: in vivo, common chickweed (Stellaria media)
How it was run: as §3

persian speedwell [13] = assay: Test Example 4: herbicidal effect by soil treatment (Table 19, symbol R); assay type: in vivo, Persian speedwell (Veronica persica)
How it was run: as §3

southern crabgrass [14] = assay: Test Example 5: herbicidal effect by foliage application, plastic box (Table 20, symbol F); assay type: in vivo, southern crabgrass (Digitaria ciliaris); settings: foliage application, 320 g/ha, evaluated three weeks after application
How it was run: (§4)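 Plants sown in sterilized diluvial soil and grown 14 days in a greenhouse at 25° C to 30° C, then sprayed on the foliage with the compound's emulsion diluted in water to a predetermined herbicide amount. Injury to weeds and crops scored three weeks after application on a visual rating scale.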

green foxtail [15] = assay: Test Example 5: herbicidal effect by foliage application, plastic box (Table 20, symbol G); assay type: in vivo, green foxtail (Setaria viridis); settings: foliage application, 320 g/ha, evaluated three weeks after application
How it was run: as §4

barnyard grass [16] = assay: Test Example 5: herbicidal effect by foliage application, plastic box (Table 20, symbol H); assay type: in vivo, barnyard grass (Echinochloa crus-galli); settings: foliage application, 320 g/ha, evaluated three weeks after application
How it was run: as §4

wild oat [17] = assay: Test Example 5: herbicidal effect by foliage application, plastic box (Table 20, symbol I); assay type: in vivo, wild oat (Avena fatua); settings: foliage application, 320 g/ha, evaluated three weeks after application
How it was run: as §4

blackgrass [18] = assay: Test Example 5: herbicidal effect by foliage application, plastic box (Table 20, symbol J); assay type: in vivo, blackgrass (Alopecurus myosuroides); settings: foliage application, 320 g/ha, evaluated three weeks after application
How it was run: as §4

Italian ryegrass [19] = assay: Test Example 5: herbicidal effect by foliage application, plastic box (Table 20, symbol K); assay type: in vivo, Italian ryegrass (Lolium multiflorum); settings: foliage application, 320 g/ha, evaluated three weeks after application
How it was run: as §4

windgrass [20] = assay: Test Example 5: herbicidal effect by foliage application, plastic box (Table 20, symbol L); assay type: in vivo, windgrass (Apera spica-venti); settings: foliage application, 320 g/ha, evaluated three weeks after application
How it was run: as §4

velvetleaf [21] = assay: Test Example 5: herbicidal effect by foliage application, plastic box (Table 20, symbol M); assay type: in vivo, velvetleaf (Abutilon theophrasti); settings: foliage application, 320 g/ha, evaluated three weeks after application
How it was run: as §4

redroot pigweed [22] = assay: Test Example 5: herbicidal effect by foliage application, plastic box (Table 20, symbol N); assay type: in vivo, redroot pigweed (Amaranthus retroflexus); settings: foliage application, 320 g/ha, evaluated three weeks after application
How it was run: as §4

lambsquarters [23] = assay: Test Example 5: herbicidal effect by foliage application, plastic box (Table 20, symbol O); assay type: in vivo, lambsquarters (Chenopodium album); settings: foliage application, 320 g/ha, evaluated three weeks after application
How it was run: as §4

chickweed [24] = assay: Test Example 5: herbicidal effect by foliage application, plastic box (Table 20, symbol P); assay type: in vivo, common chickweed (Stellaria media); settings: foliage application, 320 g/ha, evaluated three weeks after application
How it was run: as §4

persian speedwell [25] = assay: Test Example 5: herbicidal effect by foliage application, plastic box (Table 20, symbol R); assay type: in vivo, Persian speedwell (Veronica persica); settings: foliage application, 320 g/ha, evaluated three weeks after application
How it was run: as §4

[26] = amount of applied herbicide 320 g/ha

| Compound | herbicidal effect rating, A: late watergrass (late watergrass) | herbicidal effect rating, B: Japanese bulrush (Japanese bulrush) | herbicidal effect rating, C: oval-leafed pondweed (oval-leafed pondweed) | herbicidal effect on F: southern crabgrass (southern crabgrass [14]) | herbicidal effect on G: green foxtail (green foxtail [15]) | herbicidal effect on H: barnyard grass (barnyard grass [16]) | herbicidal effect on I: wild oat (wild oat [17]) | herbicidal effect on J: blackgrass (blackgrass [18]) | herbicidal effect on K: Italian ryegrass (Italian ryegrass [19]) | herbicidal effect on L: windgrass (windgrass [20]) | herbicidal effect on M: velvetleaf (velvetleaf [21]) | herbicidal effect on N: redroot pigweed (redroot pigweed [22]) | herbicidal effect on O: lambsquarters (lambsquarters [23]) | herbicidal effect on P: chickweed (chickweed [24]) | herbicidal effect on R: persian speedwell (persian speedwell [25]) | also measured |
| --- | --- | --- | --- | --- | --- | --- | --- | --- | --- | --- | --- | --- | --- | --- | --- | --- |
| Cc1nn(C)c(=O)c(-c2c(-c3ccc(OC4CCOC4)cc3)sc3ccc(F)cc23)c1O (stereo not drawn) [2-074] | 0 (Herbicidal rate of 5% or less (almost no effect)) | 3 (Herbicidal rate of 40% or more and less than 70%) | 0 (Herbicidal rate of 5% or less (almost no effect)) | 5 (Herbicidal rate of 90% or more (almost completely withered)) | 5 (Herbicidal rate of 90% or more (almost completely withered)) | 5 (Herbicidal rate of 90% or more (almost completely withered)) | 4 (Herbicidal rate of 70% or more and less than 90%) | 5 (Herbicidal rate of 90% or more (almost completely withered)) | 4 (Herbicidal rate of 70% or more and less than 90%) | 5 (Herbicidal rate of 90% or more (almost completely withered)) | 5 (Herbicidal rate of 90% or more (almost completely withered)) | 5 (Herbicidal rate of 90% or more (almost completely withered)) | 5 (Herbicidal rate of 90% or more (almost completely withered)) | 5 (Herbicidal rate of 90% or more (almost completely withered)) | 5 (Herbicidal rate of 90% or more (almost completely withered)) | herbicidal effect on H (barnyard grass), rating 0-5 (barnyard grass [1]; 320 g/ha): 5 (Herbicidal rate of 90% or more (almost completely withered)); herbicidal effect on D (Chinese sprangletop), rating 0-5 (Chinese sprangletop; 320 g/ha): 5 (Herbicidal rate of 90% or more (almost completely withered)); herbicidal effect on E (rice flat sedge), rating 0-5 (rice flat sedge; 320 g/ha): 5 (Herbicidal rate of 90% or more (almost completely withered)); herbicidal effect rating, F: southern crabgrass (southern crabgrass [2]; 320 g/ha): 5 (Herbicidal rate of 90% or more (almost completely withered)); herbicidal effect rating, G: green foxtail (green foxtail [3]; 320 g/ha): 5 (Herbicidal rate of 90% or more (almost completely withered)); herbicidal effect rating, H: barnyard grass (barnyard grass [4]; 320 g/ha): 5 (Herbicidal rate of 90% or more (almost completely withered)); herbicidal effect rating, I: wild oat (wild oat [5]; 320 g/ha): 0 (Herbicidal rate of 5% or less (almost no effect)); herbicidal effect rating, J: blackgrass (blackgrass [6]; 320 g/ha): 1 (Herbicidal rate of 5% or more and less than 20%); herbicidal effect rating, K: Italian ryegrass (Italian ryegrass [7]; 320 g/ha): 3 (Herbicidal rate of 40% or more and less than 70%); herbicidal effect rating, L: windgrass (windgrass [8]; 320 g/ha): 3 (Herbicidal rate of 40% or more and less than 70%); herbicidal effect rating, M: velvetleaf (velvetleaf [9]; 320 g/ha): 3 (Herbicidal rate of 40% or more and less than 70%); herbicidal effect rating, N: redroot pigweed (redroot pigweed [10]; 320 g/ha): 5 (Herbicidal rate of 90% or more (almost completely withered)); herbicidal effect rating, O: lambsquarters (lambsquarters [11]; 320 g/ha): 5 (Herbicidal rate of 90% or more (almost completely withered)); herbicidal effect rating, P: chickweed (chickweed [12]; 320 g/ha): 3 (Herbicidal rate of 40% or more and less than 70%); herbicidal effect rating, R: persian speedwell (persian speedwell [13]; 320 g/ha): 5 (Herbicidal rate of 90% or more (almost completely withered)) |
| COc1ccc(-c2sc3ccc(Cl)cc3c2-c2c(O)c(C)nn(C)c2=O)cc1F [2-117] | 0 (Herbicidal rate of 5% or less (almost no effect)) | 2 (Herbicidal rate of 20% or more and less than 40%) | 3 (Herbicidal rate of 40% or more and less than 70%) | 0 (Herbicidal rate of 5% or less (almost no effect)) | 0 (Herbicidal rate of 5% or less (almost no effect)) | 0 (Herbicidal rate of 5% or less (almost no effect)) | 0 (Herbicidal rate of 5% or less (almost no effect)) | 0 (Herbicidal rate of 5% or less (almost no effect)) | 0 (Herbicidal rate of 5% or less (almost no effect)) | 0 (Herbicidal rate of 5% or less (almost no effect)) | 4 (Herbicidal rate of 70% or more and less than 90%) | 3 (Herbicidal rate of 40% or more and less than 70%) | 3 (Herbicidal rate of 40% or more and less than 70%) | 5 (Herbicidal rate of 90% or more (almost completely withered)) | 5 (Herbicidal rate of 90% or more (almost completely withered)) | herbicidal effect on H: barnyard grass (barnyard grass [1]; [26]): 3 (Herbicidal rate of 40% or more and less than 70%); herbicidal effect on D: Chinese sprangletop (Chinese sprangletop; [26]): 3 (Herbicidal rate of 40% or more and less than 70%); herbicidal effect on E: rice flat sedge (rice flat sedge; [26]): 5 (Herbicidal rate of 90% or more (almost completely withered)); F: southern crabgrass, herbicidal effect rating (southern crabgrass [2]; [26]): 0 (Herbicidal rate of 5% or less (almost no effect)); G: green foxtail, herbicidal effect rating (green foxtail [3]; [26]): 0 (Herbicidal rate of 5% or less (almost no effect)); H: barnyard grass, herbicidal effect rating (barnyard grass [4]; [26]): 0 (Herbicidal rate of 5% or less (almost no effect)); I: wild oat, herbicidal effect rating (wild oat [5]; [26]): 0 (Herbicidal rate of 5% or less (almost no effect)); J: blackgrass, herbicidal effect rating (blackgrass [6]; [26]): 0 (Herbicidal rate of 5% or less (almost no effect)); K: Italian ryegrass, herbicidal effect rating (Italian ryegrass [7]; [26]): 0 (Herbicidal rate of 5% or less (almost no effect)); L: windgrass, herbicidal effect rating (windgrass [8]; [26]): 0 (Herbicidal rate of 5% or less (almost no effect)); M: velvetleaf, herbicidal effect rating (velvetleaf [9]; [26]): 0 (Herbicidal rate of 5% or less (almost no effect)); N: redroot pigweed, herbicidal effect rating (redroot pigweed [10]; [26]): 1 (Herbicidal rate of 5% or more and less than 20%); O: lambsquarters, herbicidal effect rating (lambsquarters [11]; [26]): 3 (Herbicidal rate of 40% or more and less than 70%); P: chickweed, herbicidal effect rating (chickweed [12]; [26]): 0 (Herbicidal rate of 5% or less (almost no effect)); R: persian speedwell, herbicidal effect rating (persian speedwell [13]; [26]): 1 (Herbicidal rate of 5% or more and less than 20%) |
